Measurements published in publication PMC8510601, “Discovery of benzamide-hydroxypyridinone hybrids as potent multi-targeting agents for the treatment of Alzheimer's disease” (Journal of Enzyme Inhibition and Medicinal Chemistry, 2021).
Structures can show the parent of a compound that is named as a salt. Where two headings read alike, the source gives them in different places.

How the values were obtained:
MAO-B = target: T1, MAO-B (Homo sapiens, UniProt P27338); assay: Human MAO-B inhibition assay; type: biochemical; settings: for inhibition at 0.1 µM: read-out: Inhibitory rate ± SEM (%, 100 nM); for inhibition at 1 µM: read-out: Inhibitory rate ± SEM (%, 1 μM); for IC50: ± SEM, read-out: IC50 against MAO-B
T1 sequence (P27338 1-520): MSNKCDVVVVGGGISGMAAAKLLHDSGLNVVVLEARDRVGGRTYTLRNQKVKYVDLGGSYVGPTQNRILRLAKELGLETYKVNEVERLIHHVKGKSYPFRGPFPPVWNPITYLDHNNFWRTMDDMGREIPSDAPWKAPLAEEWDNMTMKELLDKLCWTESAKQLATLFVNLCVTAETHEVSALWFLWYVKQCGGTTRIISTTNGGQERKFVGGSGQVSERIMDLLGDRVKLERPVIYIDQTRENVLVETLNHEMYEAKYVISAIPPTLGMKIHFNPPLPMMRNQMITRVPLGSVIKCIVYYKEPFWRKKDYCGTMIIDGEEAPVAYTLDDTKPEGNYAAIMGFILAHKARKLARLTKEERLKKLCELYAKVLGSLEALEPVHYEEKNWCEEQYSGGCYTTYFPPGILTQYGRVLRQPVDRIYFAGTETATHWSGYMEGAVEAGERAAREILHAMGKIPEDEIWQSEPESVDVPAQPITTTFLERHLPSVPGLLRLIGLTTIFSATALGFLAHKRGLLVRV

MAO-A = target: T2, MAO-A (Homo sapiens, UniProt P21397); assay: Human MAO-A inhibitory assay; type: biochemical; settings: read-out: IC50 ± SEM MAO-A
T2 sequence (P21397 1-527): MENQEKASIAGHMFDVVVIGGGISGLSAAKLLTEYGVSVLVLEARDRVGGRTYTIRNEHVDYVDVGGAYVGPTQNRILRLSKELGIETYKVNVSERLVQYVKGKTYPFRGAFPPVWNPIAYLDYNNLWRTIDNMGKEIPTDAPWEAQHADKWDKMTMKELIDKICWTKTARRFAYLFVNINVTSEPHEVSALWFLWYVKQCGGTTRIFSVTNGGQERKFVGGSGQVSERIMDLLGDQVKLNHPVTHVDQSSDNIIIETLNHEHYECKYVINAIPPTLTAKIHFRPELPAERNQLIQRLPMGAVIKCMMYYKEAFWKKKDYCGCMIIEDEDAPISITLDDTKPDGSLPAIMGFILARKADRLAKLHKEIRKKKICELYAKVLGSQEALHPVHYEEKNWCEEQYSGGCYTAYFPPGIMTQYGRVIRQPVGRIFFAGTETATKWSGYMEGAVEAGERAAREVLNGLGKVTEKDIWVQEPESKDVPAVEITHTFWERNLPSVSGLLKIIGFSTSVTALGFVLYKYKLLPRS

PC12 cells = assay: Intracellular ROS detection (DCFH-DA), Aβ1–42-induced; type: cell-based; settings: 8g and Aβ1–42 10 μM, flow cytometry
Experimental: Aβ deposition and peroxidation are also important clinical features of AD. Therefore, we subsequently assessed the antioxidation of compound 8g, using 2′,7′-dichlorofluorescin diacetate (DCFH-DA) to detect intracellular ROS generation on the PC12 cell line derived from neural pheochromocytoma. Based on our previous research, the concentration of 10 μM of compound 8g was chosen in this test. […]
8. Intracellular ROS detection

PAMPA-BBB assay = settings: for Prediction of CNS penetrability: from Pe in PAMPA-BBB
[1] = pKa determination by spectrophotometric titration; settings: pH range 2.0–10.5, 25 °C
[2] = tested on: scopolamine-induced cognitive dysfunction ICR mice; assay: Morris water maze test, scopolamine-induced cognitive dysfunction; settings: MWM last day, test agent 15 mg/kg i.p. + scopolamine 15 mg/kg i.p., 15 days, n = 8, mean ± SEM
Experimental: The MWM test was performed at the last 5 days including two days of memory and learning training, three days of cognitive assessment. On the fifth day, a probe training trial was performed and analysed. […] However, the dosage of scopolamine was increased from 5 mg/kg to 15 mg/kg to achieve a better modelling effect.
Cognitive and memory assays in vivo
The adult female ICR mice (8-10 weeks old, weight 20-25 g) were obtained from the
Zhejiang Academy of Medical Sciences (Hangzhou, China).
agents were prepared as clear injections, consisting of 10% DMSO, 20%
(2-hydroxypropyl)-β-cyclodextrin and PBS. The mice were trained to find the platform (10 cm
diameter) in the opaque circular pool (120 cm diameter, 60 cm height) filled with water (40 cm,
depth), which was described in detail in our previous study.[1] All mice received at least one
training session daily in four quadrants for four consecutive days before testing of finding the
The mice were randomly divided into four groups: (i) control group (PBS of 20%
were intraperitoneally injected with indicated compounds or solvent 30 min before intraperitoneal
injection with scopolamine or PBS once a day for 15 consecutive days. The Morris water maze
test was performed at the last 5 days.

[3] = Iron-chelating activity test: affinity constants for Fe3+ and pFe3+
[4] = DFP^d: KCl (0.1 M); cited from earlier work
[5] = DFP^d: KCl (0.1 M); cited from earlier work; remark: listed apart in the source
in vitro = settings: PAMPA
[6] = literature value, cited from earlier work
[7] = 0.1 M KCl aqueous solution, KCl (0.1 M)
[8] = 0.1 M KCl aqueous solution, pKa2, KCl (0.1 M)
[9] = pH 7.4, [Fe3+]total = 10^−6 M, [ligand]total = 10^−5 M, calculated from pKa and log β measured in KCl/DMSO

inhibition at 0.1 µM (MAO-B; 100 nM)	inhibition at 1 µM (MAO-B; 1 μM)	melting point	pKa [1, 7]	pKa [1, 8]	Compound	Distance to the target [2]	Entries to the target [2]	Log β2 ([3]; KCl (0.1 M): DMSO = 3:2 (v/v))	Log β3 ([3]; KCl (0.1 M): DMSO = 3:2 (v/v))	Log β1 ([3]; KCl (0.1 M): DMSO = 9:1 (v/v))	pFe^3+ [3, 9]	other results
> 50%	78.29 ± 0.16%	246 to 248 °C	3.38	9.69	Cc1c(O)c(=O)ccn1CCNC(=O)c1ccc(OCc2ccccc2)cc1 [Compound 8g]	2.64 ± 0.52 m	4.12 ± 0.40	26.04	35.65	14.60	19.31	SI (selectivity index) = IC50 (MAO-A)/IC50 (MAO-B) (MAO-B; selectivity for the MAO-B isoform): 213; IC50 (MAO-B): 68.4 ± 6.05 nM; IC50 (MAO-A): 14600 ± 231 nM; ROS %Gated (percentage of positive cells in the total number of cells) (PC12 cells): 33.32%; ROS Mean (average fluorescence intensity of all cells) (PC12 cells): 106.35; Papp at 6 h, 25 μg/mL (PAMPA-BBB assay; PAMPA): 4.07 ± 0.44 ×10⁻⁶ cm/s; Prediction of CNS penetrability (PAMPA-BBB assay): CNS + (CNS +: Pe (10^–6 cm/s) > 4.0, high BBB permeability); Pe ± SEM (PAMPA-BBB assay; porcine brain lipid, 6 h at 25 °C, eight independent experiments): > 4.0 10^–6 cm/s
34 ± 5.19%	61.48 ± 0.58%	219 to 221 °C	3.35	9.86	Cc1c(O)c(=O)ccn1CCNC(=O)c1ccccn1 [Compound 11a]			25.92	35.10	14.52	18.27	
34.1 ± 1.58%	60.8 ± 1.99%	266 to 268 °C	3.09	9.79	Cc1c(O)c(=O)ccn1CCNC(=O)c1cccnc1 [Compound 11b]			25.68	34.75	14.40	18.13	IC50 (MAO-B): 248 ± 9.56 nM
29.1 ± 2.14%	69.7 ± 2.38%	280 to 282 °C	3.15	9.81	Cc1c(O)c(=O)ccn1CCNC(=O)c1ccncc1 [Compound 11c]			26.21	35.58	14.74	18.89	
					Cc1c(O)c(=O)ccn1C [DFP, Deferiprone, reference compound]			26.04	34.84	14.75	18.24	Log β1 [4]: 15.03; Log β2 [4]: 27.42; Log β3 [4]: 37.35; pFe^3+ [4]: 20.74; pKa1 [5]: 3.61; pKa2 [5]: 9.78; pKa ([1]; KCl (0.1 M)): 3.64; pKa2 ([1]; KCl (0.1 M)): 9.79; pFe^3+ ([3]; DFP^a: from constants measured in KCl (0.1 M)): 20.12; Log β1 ([3]; DFP^a: measured in KCl (0.1 M)): 14.86; Log β2 ([3]; DFP^a: measured in KCl (0.1 M)): 27.13; Log β3 ([3]; DFP^a: measured in KCl (0.1 M)): 36.76
					C#CCN(C)Cc1ccccc1 [Pargyline, reference compound]	2.89 ± 0.69 m	3.85 ± 0.48					inhibition at 0.1 µM (MAO-B): 50.3 ± 0.73%; inhibition at 1 µM (MAO-B): 91.59 ± 0.09%
					CN1C(C(=O)Nc2ccccn2)=C(O)c2ccccc2S1(=O)=O [Piroxicam]							Papp (in vitro): 2.05 ± 0.04 ×10⁻⁶ cm/s; Pe ([6]; footnote c): 2.5^c 10^–6 cm/s; Prediction of CNS penetrability (PAMPA-BBB assay): CNS ± (CNS ±: 2.0 < Pe (10^–6 cm/s) < 4.0, uncertain BBB permeability)
					Nc1c2c(nc3ccccc13)CCCC2 [Tacrine]							Papp at 6 h, 25 μg/mL (in vitro): 4.12 ± 0.45 ×10⁻⁶ cm/s; Pe ([6]; footnote b): 5.3 ± 0.19^b 10^–6 cm/s
					CN1[C@@H]2C[C@@H](OC(=O)[C@H](CO)c3ccccc3)C[C@H]1[C@@H]1O[C@@H]12 [scopolamine, Scopolamine hydrobromide]	7.74 ± 1.23 m	2.00 ± 0.50					Latency to the target [2]: 41.40 ± 5.87 s
					Aβ1–42: Aβ peptide used to induce intracellular ROS in PC12 cells (model group) [reference compound]							ROS %Gated (percentage of positive cells in the total number of cells) (PC12 cells): 44.58%; ROS Mean (average fluorescence intensity of all cells) (PC12 cells): 131.56
